Like-named read-outs stand apart in the source and are kept apart here. One block for each compound: values may come before it.
Columns and labels:
[1] = test system: non-synovial control cancer cell lines (293T, A549, G401); assay: Growth of non-synovial control cancer cell lines (crystal violet, colony imaging); type: cell-based; conditions: FIGS. 5, 6, 7
Procedure: (§1) Cells were seeded into 12-well plates and treated with DMSO, 1 μM BRD9 inhibitor, Compound 2 (also known as BI-7273, see Martin et al, J Med Chem. 59(10):4462-4475 (2016); see structure of Compound 2 below), or 1 μM BRD9 degrader, Compound 1.
(§2) The number of cells was optimized for each cell line. Growth medium and compounds were refreshed every 3-5 days. SYO1, Yamato, A549, 293T and HS-SY-II cells were fixed and stained at day 11. ASKA cells were fixed and stained at day 23. Staining was done by incubation with crystal violet solution (0.5 g Crystal Violet, 27 ml 37% Formaldehyde, 100 mL 10×PBS, 10 mL Methanol, 863 dH20 to 1 L) for 30 min followed by 3× washes with water and drying the plates for at least 24 h at room temperature. Subsequently plates were scanned on an Odyssey CLx Imaging system (FIG. 6).
(§3) Cells were seeded into 96-well ultra low cluster plate (Costar, #7007) in 200 μL complete media and treated at day 2 with DMSO, Staurosporin, or BRD9 degarder, Compound 1, at indicated doses (FIG. 7). Media and compounds were changed every 5 d and cell colonies were imaged at day 14.

[2] = test system: synovial sarcoma cell lines (SYO1, Yamato, HS-SY-II, ASKA); assay: Growth of synovial sarcoma cell lines (IncuCyte confluency, crystal violet, colony imaging); type: cell-based; conditions: 1 μM or indicated concentrations, FIGS. 5, 6, 7
Procedure: Cells were treated with DMSO or the BRD9 degrader, Compound 1, at indicated concentrations, and proliferation was monitored from day 7 to day 14 by measuring confluency overtime using an IncuCyte live cell analysis system (FIG. 5). Growth medium and compounds were refreshed every 3-4 days.
as §1, §2, §3

[3] = test system: synovial sarcoma cell lines (SYO1, HS-SY-II, ASKA); assay: Growth of synovial sarcoma cell lines, 14-day crystal violet staining; type: cell-based; conditions: for inhibition of cell growth: SYO1, HS-SY-II, ASKA, treated daily, day 14, FIG. 8
Procedure: (§4) Procedure: Cells were seeded into 6-well or 12-well plates and were treated daily with a BRD9 degrader (Compound 1), a bromo-domain BRD9 binder (Compound 2), E3 ligase binder (lenalidomide), DMSO, or staurosporin (positive control for cell killing), at indicated concentrations. The number of cells was optimized for each cell line. Growth media was refreshed every 5 days. By day 14, medium was removed, cells were washed with PBS, and stained using 500 μL of 0.005% (w/v) crystal violet solution in 25% (v/v) methanol for at least 1 hour at room temperature. Subsequently plates were scanned on an Odyssey CLx Imaging system.

[4] = test system: non-synovial control cancer cell lines (RD, HCT116, Calu6); assay: Growth of non-synovial control cancer cell lines, 14-day crystal violet staining; type: cell-based; conditions: treated daily, day 14, FIG. 9
Procedure: as §4

SYO1 cells = assay: Cell cycle analysis (Click-iT Plus EdU Flow Cytometry Assay); type: cell-based; conditions: SYO1, 200 nM or 1 μM, 8 or 13 days, compared to DMSO and lenalidomide
Procedure: Procedure: SYO1 cells were treated for 8 or 13 days with DMSO, a BRD9 degrader (Compound 1) at 200 nM or 1 μM, or an E3 ligase binder (lenalidomide) at 200 nM. Compounds were refreshed every 5 days. Cell cycle analysis was performed using the Click-iT™ Plus EdU Flow Cytometry Assay (Invitrogen). The apoptosis assay was performed using the Annexin V-FITC Apoptosis Detection Kit (Sigma A9210). Assays were performed according to the manufacturer's protocol.

[5] = target: 3×FLAG-NLuc-BRD9 (Nano luciferase-BRD9 fusion protein) in SYO-1 cells (Homo sapiens (Human), UniProt Q9H8M2); assay: SYO1 BRD9 NanoLuc degradation assay; type: cell-based; conditions: SYO-1 cells expressing 3×FLAG-NLuc-BRD9, 6 hours incubation, read-out: SYO1 BRD9-NanoLuc degradation IC50
3×FLAG-NLuc-BRD9 (Nano luciferase-BRD9 fusion protein) in SYO-1 cells, sequence (Q9H8M2 whole entry, the tested form may be a part): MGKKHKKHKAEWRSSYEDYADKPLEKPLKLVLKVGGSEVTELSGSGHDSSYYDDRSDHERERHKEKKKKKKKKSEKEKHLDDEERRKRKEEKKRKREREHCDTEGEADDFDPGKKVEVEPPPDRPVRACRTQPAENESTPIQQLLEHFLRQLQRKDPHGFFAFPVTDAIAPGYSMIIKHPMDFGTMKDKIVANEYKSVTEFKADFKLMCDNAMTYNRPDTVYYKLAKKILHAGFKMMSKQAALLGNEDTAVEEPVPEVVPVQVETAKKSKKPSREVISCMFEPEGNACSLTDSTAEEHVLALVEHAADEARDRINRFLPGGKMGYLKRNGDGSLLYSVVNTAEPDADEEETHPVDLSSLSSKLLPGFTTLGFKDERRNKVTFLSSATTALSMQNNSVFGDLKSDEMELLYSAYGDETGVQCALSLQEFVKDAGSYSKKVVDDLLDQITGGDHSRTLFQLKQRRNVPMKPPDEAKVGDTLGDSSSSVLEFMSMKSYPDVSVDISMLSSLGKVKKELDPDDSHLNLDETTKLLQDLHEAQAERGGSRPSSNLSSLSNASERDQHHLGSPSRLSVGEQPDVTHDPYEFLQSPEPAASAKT
Procedure: Procedure: A stable SYO-1 cell line expressing 3×FLAG-NLuc-BRD9 was generated. On day 0 cells were seeded in 30 μL media into each well of 384-well cell culture plates. The seeding density was 8000 cells/well. On day 1, cells were treated with 30 nL DMSO or 30 nL of 3-fold serially DMSO-diluted compounds (10 points in duplicates with 1 μM as final top dose). Subsequently plates were incubated for 6 hours in a standard tissue culture incubator and equilibrated at room temperature for 15 minutes. Nanoluciferase activity was measured by adding 15 μL of freshly prepared Nano-Glo Luciferase Assay Reagent (Promega N1130), shaking the plates for 10 minutes and reading the bioluminescence using an EnVision reader.
Results: The Inhibition % was calculated using the following formula: % Inhibition=100×(LuMHC−Lumsample)/(LumHC−LumLC). DMSO treated cells are employed as High Control (HC) and 1 μM of a known BRD9 degrader standard treated cells are employed as Low Control (LC).

[6] = target: BRD9 bromodomain (Flag-BRD9 P133-K239) (Homo sapiens (Human), UniProt Q9H8M2); assay: BRD9 bromodomain TR-FRET competition binding assay; conditions: Table 4; 3 nM Flag-BRD9, 3.75 nM biotinylated ligand, 90 minutes at room temperature
BRD9 bromodomain (Flag-BRD9 P133-K239), sequence (Q9H8M2 133-239): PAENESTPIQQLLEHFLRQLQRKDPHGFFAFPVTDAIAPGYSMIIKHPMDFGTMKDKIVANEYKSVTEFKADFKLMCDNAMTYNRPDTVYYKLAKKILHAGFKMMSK
Procedure: Procedure: His-Flag-BRD9 (P133-K239; Swiss Prot Q9H8M2; SEQ ID NO:1 mgsshhhhhhenlyfq/gdykddddkgslevlfqg/[…] […]) was cloned, expressed, purified, and then treated with TEV protease. Cleaved His tag was removed by purification. The binding of a biotinylated small molecule ligand of BRD9 was assessed via the LANCE® TR-FRET platform (PerkinElmer), and the compounds were assayed for inhibitory activity against this interaction.
A mixture of biotinylated-ligand and SureLight™ Allophycocyanin-Streptavidin (APC-SA, PerkinElmer AD0201) in 50 mM HEPES (pH 7.4), 50 mM NaCl, 1 mM TCEP (pH 7), 0.01% (v/v) Tween-20, 0.01% (w/v) bovine serum albumin was added to a white 384-well PerkinElmer Proxiplate Plus plate. DMSO or 3-fold serially diluted compounds were then added to the Proxiplate followed by addition of Flag-BRD9. After a 10-minute incubation at room temperature, Eu-W1024 anti-FLAG (PerkinElmer, AD0273) was added. The final reaction mixture that contained 3.75 nM biotinylated ligand, 3 nM Flag-BRD9, 7.5 nM SureLight™ Allophycocyanin-Streptavidin, and 0.2 nM Eu-W1024 anti-FLAG was incubated at room temperature for 90 minutes.
Results: The plates were then read on a PerkinElmer Envision plate reader to determine the ratio of emission at 665 nm over 615 nm. […]

SMILES: COc1cc(-c2cn(C)c(=O)c3cnccc23)cc(OC)c1CN(C)CC(=O)NCCOCCOCCNc1cccc2c1C(=O)N(C1CCC(=O)NC1=O)C2=O (stereo not drawn) [Compound 1]
- inhibition of cell growth [1]: does not result in inhibition of the growth
- inhibition of cell growth [2]: inhibition of the growth of the cells
- inhibition of cell growth [3]: inhibition of the growth of the cells
- growth inhibition compared among tested agents ([3]; all synovial cell lines, versus Compound 2 and lenalidomide): most significant growth inhibition in all synovial cell lines
- inhibition of cell growth [4]: did not result in inhibition of the growth
- numbers of cells in the S-phase of the cell cycle (SYO1 cells): reduced numbers of cells in the S-phase of the cell cycle

SMILES: COc1cc(-c2cn(C)c(=O)c3cnccc23)cc(OC)c1CN(C)C [Compound 2]
- inhibition of cell growth [1]: does not result in inhibition of the growth
- inhibition of cell growth [2]: inhibition of the growth of the cells
- inhibition of cell growth [3]: inhibition of the growth of the cells
- inhibition of cell growth [4]: did not result in inhibition of the growth

- DC50 ([5]; Table 5A): 10 to 100 nM
- IC50 [6]: < 10 nM
SMILES: COc1cc(-c2cn(C)c(=O)c3cnccc23)cc(OC)c1CN1CC2(CCN(C(=O)CCOCCOc3cccc4c3C(=O)N(C3CCC(=O)NC3=O)C4=O)C2)C1 (stereo not drawn) [Compound D90]

- DC50 ([5]; Table 5A): 10 to 100 nM
- IC50 [6]: 10 to 100 nM
SMILES: COc1cc(-c2cn(C)c(=O)c3cnccc23)cc(OC)c1CN1CCC(COC2CCN(C(=O)CCOCCOc3cccc4c3C(=O)N(C3CCC(=O)NC3=O)C4=O)C2)CC1 (stereo not drawn) [Compound D94]

- DC50 ([5]; Table 5B): < 10 nM
SMILES: COc1cc(-c2cn(C)c(=O)c3cnccc23)cc(OC)c1CN1CCC2(CC1)CCN(C(=O)CCC#Cc1ccc3c(c1)C(=O)N(C1CCC(=O)NC1=O)C3=O)C2 (stereo not drawn) [Compound D220]

- DC50 ([5]; Table 5B): < 10 nM
SMILES: COc1cc(-c2cn(C)c(=O)c3cnccc23)cc(OC)c1CN(C)CCCCNC1CC2(CCN(c3ccc4c(c3)C(=O)N(C3CNC(=O)CC3=O)C4=O)CC2)C1 (stereo not drawn) [Compound D247]

- DC50 ([5]; Table 5B): 10 to 100 nM
SMILES: COc1cc(-c2cn(C)c(=O)c3cnccc23)cc(OC)c1CN(C)CCCCN1CC2(CCN(c3ccc4c(c3)C(=O)N(C3CCC(=O)NC3=O)C4=O)C2)C1 (stereo not drawn) [Compound D248]

- DC50 ([5]; Table 5B): < 10 nM
SMILES: COc1cc(-c2cn(C)c(=O)c3cnccc23)cc(OC)c1CN1CC(n2cc(COCc3ccc4c(c3)C(=O)N(C3CCC(=O)NC3=O)C4=O)nn2)C1 (stereo not drawn) [Compound D298]

- DC50 ([5]; Table 5C): < 10 nM
SMILES: COc1cc(-c2cn(C)c(=O)c3[nH]ccc23)cc(OC)c1CN1CCC2(CC1)CN(c1ccc3c(c1)C(=O)N(C1CCC(=O)NC1=O)C3)C2 (stereo not drawn) [Compound D419]

- DC50 ([5]; Table 5C): < 10 nM
SMILES: COc1cc(-c2cn(C)c(=O)c3c[nH]nc23)cc(OC)c1CN1CCC2(CC1)CN(c1ccc3c(c1)C(=O)N(C1CCC(=O)NC1=O)C3)C2 (stereo not drawn) [Compound D420]

- DC50 ([5]; Table 5C): < 10 nM
SMILES: COc1cc(-c2cc(C(F)F)c(=O)n(C)c2)cc(OC)c1CN1CC(C#Cc2ccc3c(c2)C(=O)N(C2CCC(=O)NC2=O)C3)C1 (stereo not drawn) [Compound D439]

- DC50 ([5]; Table 5C): < 10 nM
SMILES: COc1cc(-c2cc(C)c(=O)n(C)c2)cc(OC)c1CN1CC(C)(C#Cc2ccc3c(c2)C(=O)N(C2CCC(=O)NC2=O)C3)C1 (stereo not drawn) [Compound D450]

- DC50 ([5]; Table 5C): < 10 nM
SMILES: COc1cc(-c2cc(C)c(=O)n(C)c2)cc(OC)c1CN1CC(C#Cc2ccc3c(c2)C(=O)N(C2CCC(=O)NC2=O)C3)C1C (stereo not drawn) [Compound D453]

- DC50 ([5]; Table 5C): ≥ 1000 nM
SMILES: C/C=C/Cn1cc(-c2ccc(CN3CCN(S(=O)(=O)c4ccc5c(c4)C(=O)N(C4CCC(=O)NC4=O)C5)CC3)c(Cl)c2)n2cncc2c1=O (stereo not drawn) [Compound D464]
